According to US5140037A, “Treatment of central nervous system disorders with imidazole angiotensin-II receptor antagonists” (E. I. du Pont de Nemours and Company, priority 1990, dated 1992):
“Also recorded” adds a separate entry of the source.

How the values were obtained:
[1] = molecular target: T1, AII-2 receptor (Rattus norvegicus, UniProt P35351); test: biochemical
T1 sequence (P35351 1-363): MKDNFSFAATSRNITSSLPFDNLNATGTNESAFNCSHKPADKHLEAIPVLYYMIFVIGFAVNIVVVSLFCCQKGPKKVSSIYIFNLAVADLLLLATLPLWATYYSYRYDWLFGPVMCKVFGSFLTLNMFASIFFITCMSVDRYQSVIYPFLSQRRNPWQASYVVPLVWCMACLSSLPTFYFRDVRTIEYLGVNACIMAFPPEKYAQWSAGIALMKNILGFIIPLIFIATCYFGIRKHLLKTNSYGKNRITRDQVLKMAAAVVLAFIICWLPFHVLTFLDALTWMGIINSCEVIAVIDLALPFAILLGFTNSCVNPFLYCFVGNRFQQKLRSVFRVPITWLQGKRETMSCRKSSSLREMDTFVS
Protocol: IC50 was determined by displacement of [^125 I]AII from the receptor by the indicated compound.

[2] = test system: AII-1 receptor subtype; test: Block of AII receptor subtypes, AII-1 (statement in words); assay type: binding
[3] = test system: AII-2 receptor subtype; test: Block of AII receptor subtypes, AII-2 (statement in words); assay type: binding
[4] = molecular target: AII-1 receptor; test: AII-1 site binding: displacement of [125I]AII in adrenal cortex microsomes in presence of 10^-5 M EXP655 (Table 1); set-up: species or system rat; conditions: 10^-5 M EXP655 present, [125I]AII displacement
[5] = test system: renin-induced amnesia (passive avoidance); test: Renin-disrupted passive avoidance retention; assay type: in vivo, male Sprague-Dawley rats; conditions: for effect on renin-induced amnesia: IVT, co-administered with renin
Protocol: RENIN-DISRUPTED PASSIVE AVOIDANCE RETENTION
Experimentally naive male Sprague-Dawley rats 100 to 125 days oil (Charles River Breeding Laboratories, Kingston, N.Y.), weighing between 175 to 200 gm were used. The animals were housed four per cage (45.0L×20.0H×26.0W cm) with free access to food and water. They were maintained on a 12 h light/dark cycle (lights on 0600 h) and at a room temperature of 22±1° C. with relative humidity of 50±10%.
The experimental sessions were conducted in a two-compartment passive avoidance box. One compartment, made of clear plastic with a perforated clear plastic floor, measured 21(L)×24.5(H)×17(W) cm and was illuminated with a 60 watt incandescent light bulb placed 36 cm above the floor. The other compartment, made of black plastic, measured 30.5 (L)×20.3 (H)×21.5 (W) cm with a floor made of 4 mm stainless steel rods spaced 1.2 cm apart. A grid floor shocker (Coulbourn Instruments) was connected to the steel rods and provided scrambled footshock. The two compartments were separated by a solenoid-operated slide door (Lafayette Instrument Co., Lafayette, Ind.). An electronic counter (Coulbourn Instruments), triggered by the opening or closing of the slide door, recorded acquisition and retention latencies (latencies were defined as the time it took an animal to enter the dark compartment).
Passive avoidance training began by placing the rat into the clear compartment of the two-compartment passive avoidance box. Following a 10 sec delay, the slide door to the dark compartment was raised. Once the rat moved completely into the dark compartment (all four paws on the shock grid floor) the slide door was lowered, and after a 10 sec. delay, a 1.0 mA shock was applied to the grid floor for three sec. A second three s shock was delivered after an additional 10 sec delay. The rats were immediately removed from the dark compartment and returned to their home cage. A retention test was given 24 h later. It proceeded in the same manner as the training session except that no shock was applied to the grid floor when the rats were provided access to the dark compartment for a maximum of 300 sec.
All drugs were administered IVT 60 minutes prior to acquisition training in a volume of 5 μl. Doses are expressed as the free base weight of each compound.

[6] = test system: AII binding sites in the brain; test: Binding of AII antagonists to sections of brain slices
[7] = test system: uphill avoidance; conditions: acute, 30 mg/kg PO; cited from earlier work
[8] = test system: scopolamine-induced amnesia; conditions: three times per day, 1, 3 and 10 mg/kg PO; cited from earlier work
[9] = test system: scopolamine-induced impairment of eight arm radial maze performance; conditions: 3 mg/kg IP; cited from earlier work
[10] = test system: ACh in the striatum and hypothalamus; conditions: acute or repeated administration; cited from earlier work
[11] = test system: memory of previously learned tasks; conditions: in vivo; cited from earlier work
[12] = test system: light/dark habituation; conditions: cited from earlier work
[13] = test system: avoidance learning; conditions: cited from earlier work
[14] = test system: passive avoidance response; conditions: injected into dorsal neostriatum; cited from earlier work
[15] = test system: potassium-stimulated release of [3H]ACh; conditions: rat entorhinal cortex, cited from earlier work
[16] = test system: AII in cerebrospinal fluid (CSF); conditions: cited from earlier work

CCCc1nc(-c2ccccc2)c(C=O)n1Cc1ccc(-c2ccccc2-c2nnn[nH]2)cc1 [Compound A, 1-[(2'-(1H tetrazol-5-yl)biphenyl-4-yl)methyl]-4-phenyl-2-propylimidazole-5-carboxaldehyde]
IC50 [1]: 2400 nM
AII-1 receptor block / affinity [2]: show affinity for both AII-1 and AII-2 receptors
AII-2 receptor block / affinity [3]: show affinity for both AII-1 and AII-2 receptors
IC50 [4]: 22 nM

CCCc1nc(-c2ccccc2)c(C=O)n1Cc1ccc(-c2ccccc2C(=O)O)cc1 [Compound B, 1-[(2'-carboxybiphenyl-4-yl)methyl]-4-phenyl-2-propylimidazole-5-carboxaldehyde]
IC50 [1]: 4300 nM
AII-1 receptor block / affinity [2]: show affinity for both AII-1 and AII-2 receptors
AII-2 receptor block / affinity [3]: show affinity for both AII-1 and AII-2 receptors
IC50 [4]: 290 nM

CCCc1nc(C(F)(F)F)c(C(=O)O)n1Cc1ccc(-c2ccccc2-c2nnn[nH]2)cc1 [Compound C, 2-n-propyl-1-[(2'-(1H -tetrazol-5-yl)biphenyl-4-yl)methyl]-4-trifluoromethylimidazole-5-carboxylic acid]
AII-1 receptor block / affinity [2]: AII-1 receptor antagonists
effect on renin-induced amnesia [5]: protected against the amnesia

CCCc1nc(C(F)(F)F)c(CO)n1Cc1ccc(-c2ccccc2-c2nnn[nH]2)cc1 [Compound D, 2-n-propyl-5-hydroxymethyl-1-[(2'-(1H-tetrazol-5-yl)biphenyl-4-yl)methyl]-4-trifluoromethylimidazole]
AII-1 receptor block / affinity [2]: AII-1 receptor antagonists
effect on renin-induced amnesia [5]: protected against the amnesia

Cc1cc(Cn2cnc3c2CC(C(=O)O)N(C(=O)C(c2ccccc2)c2ccccc2)C3)ccc1N (stereo not drawn) [EXP655, 1-(4-amino-3-methylphenyl)methyl-5-diphenylacetyl-4,5,6,7-tetrahydro-1H-imidazo[4,5-c]pyridine-6-carboxylic acid]
effect on renin-induced amnesia [5]: much less effective in preventing the amnesia
sensitivity of AII binding sites in the brain [6]: the majority of binding sites in the brain are DTT-insensitive and EXP655-sensitive
IC50 [4]: 300000 nM

CCOC(=O)C(CCc1ccccc1)NC(C)C(=O)N1CC2(CC3CCC2CC3)CC1C(=O)O (stereo not drawn) [Hoe 288]
uphill avoidance performance during retention testing [7]: improved performance during retention testing
scopolamine-induced PA amnesia [8]: partially reversed the amnesia
effects of muscarinic receptor blockade on radial maze performance [9]: partially antagonized the effects of muscarinic receptor blockade
ACh in the striatum and hypothalamus [10]: significant decrease in ACh in the striatum and hypothalamus

NCCCC[C@H](OP(=O)(O)CCCCc1ccccc1)C(=O)N1CCC[C@H]1C(=O)O [SQ 29852]
anticholinergic effect on performance [11]: ameliorate, at least in part, an anticholinergic effect on performance
effects on memory of previously learned tasks [11]: protective effects on memory of previously learned tasks

CNCC(=O)N[C@@H](CCCN=C(N)N)C(=O)N[C@H](C(=O)N[C@@H](Cc1ccc(O)cc1)C(=O)N[C@H](C(=O)N[C@@H](Cc1cnc[nH]1)C(=O)N1CCC[C@H]1C(=O)N[C@@H](C)C(=O)O)C(C)C)C(C)C [Saralasin]
IC50 [1]: 0.3 nM
IC50 [4]: 0.7 nM

C[C@H](CS)C(=O)N1CCC[C@H]1C(=O)O [captopril]
scopolamine-induced disruption of light/dark habituation performance ([12]; daily treatment): prevented
rate of acquisition of light/dark habituation performance ([12]; subchronic treatment): increased the rate of acquisition of light/dark habituation performance
effect of captopril on renin-induced amnesia ([5]; IVT captopril, applicant's laboratory): renin-induced amnesia can be prevented
renin-induced avoidance disruption ([13]; captopril IVT prior to renin): prevented the renin-induced avoidance disruption

NC(=O)[C@@H]1CCCN1C(=O)[C@H](Cc1cnc[nH]1)NC(=O)[C@@H]1CCC(=O)N1 [thyrotropin releasing hormone]
retention of passive avoidance response [14]: no effect

AII: Angiotensin II (AII), a circulating hormone, now thought to act as a neuropeptide in the central nervous system (DRVYIHPF; Angiotensin-2; UniProt P01019 25-32, looked up)
retention of passive avoidance response [14]: showed a disruption in retention of a PA response
basal ACh levels [15]: without effects on basal levels
potassium-stimulated release of ACh [15]: reduced potassium-stimulated release of ACh
IC50 [4]: 1.5 nM

[1-sarcosine, 8-threonine]angiotensin II
antagonism of AII effect on ACh release ([15]; with AII): antagonized

lysine-8-vasopressin
retention of passive avoidance response [14]: no effect

B1: renin: Renin (Sigma Chemicals), a stimulator of endogenous AII biosynthesis (protein, UniProt P00797 67-406, looked up)
Renin: LTLGNTTSSVILTNYMDTQYYGEIGIGTPPQTFKVVFDTGSSNVWVPSSKCSRLYTACVYHKLFDASDSSSYKHNGTELTLRYSTGTVSGFLSQDIITVGGITVTQMFGEVTEMPALPFMLAEFDGVVGMGFIEQAIGRVTPIFDNIISQGVLKEDVFSFYYNRDSENSQSLGGQIVLGGSDPQHYEGNFHYINLIKTGVWQIQMKGVSVGSSTLLCEDGCLALVDTGASYISGSTSSIEKLMEALGAKKRLFDYVVKCNEGPTLPDISFHLGGKEYTLTSADYVFQESYSSKKLCTLAIHAMDIPPPTGPTWALGATFIRKFYTEFDRRNNRIGFALAR
memory effect of renin ([5]; renin IVT): produces a reliable memory deficit; also recorded: produces a dose-related amnesia in a PA task
Median Retention Latency ([5]; renin alone 5.0 μg/5 μL IVT): 17 s
AII in CSF after renin ([16]; renin IVT): about 5,000 fmol per mL
AII in CSF before renin ([16]; starting level): 40 fmol per mL
avoidance learning ([13]; renin IVT): disruption of avoidance learning
